Measured values: article PMC7589057, “Synthesis of Hantzsch Adducts as Cholinesterases and Calcium Flux inhibitors, Antioxidants and Neuroprotectives” (International Journal of Molecular Sciences, 2020)
“And” between values parts separate entries of the source, which are not always exact repeats. Equal entries are not always repeated.

Assays:
eqBuChE = eqBuChE (Equus caballus, UniProt P81908); experiment: biochemical; conditions: for inhibition at 10 µM: read-out: BuChE % inhibition at 10 μM (no IC50 given), 10 μM; for IC50: mean ± SEM, read-out: BuChE IC50
Description: (§1) The evaluation of the activity of compounds against both EeAChE and eqBuChE was evaluated following the Ellman spectrophotometric method. Briefly, the reaction happens in a final volume of 3 mL of a 0.1 M phosphate-buffered solution at pH = 8.0, containing 5,5′-dithiobis-2-nitrobenzoic acid, EeAChE or eqBuChE, tested compound and bovine albumin serum phosphate-buffered (pH = 8) solution After this pre-incubation period, acetylthiocholine iodide or butyrylthiocholine iodide was added, allowing 15 min of additional incubation time.

EeAChE = EeAChE (Electrophorus electricus, UniProt O42275); experiment: biochemical; type: biochemical; conditions: for inhibition at 10 µM: read-out: AChE % inhibition at 10 μM (no IC50 given)
Description: as §1

[1] = Oxygen radical absorbance capacity assay (ORAC-FL); conditions: Trolox equivalents, mean (n = 3) ± SEM
Description: Briefly, fluorescein and antioxidant were incubated in a black 96-well microplate (Nunc) for 15 min at 37 °C. 2,2′-Azobis(amidinopropane) dihydrochloride was then added quickly using the built-in injector of Varioskan Flash plate reader (Thermo Scientific). […] All the reactions were made in triplicate and at least three different assays were performed for each sample [9, 30].

Ca^+2 channel = experiment: Calcium channel blockade (FLIPR Calcium 6, KCl/CaCl2-stimulated SH-SY5Y cells); type: cell-based; conditions: 10 μM; SH-SY5Y cells stimulated with KCl/CaCl2
Description: The calcium channel blockade assay was performed as described earlier. Briefly, the SH-SY5Y cells were seeded out in 96-well dark-walled plates at a density of 1 × 10^5 cells per well. After 24 h, the cells were loaded with FLIPR Calcium 6 indicator (Molecular Devices) for 2 h at 37 °C, according to the manufacturer’s protocol. Compounds were dissolved in an appropriate amount of DMSO at 10 mM concentration and diluted to a final concentration of 10 μM in Hanks′ Balanced Salt Solution (HBSS, Thermo Fisher Scientific) buffered with HEPES (Sigma-Aldrich) at pH = 7.4, and as such used were for treatment of indicator loaded cells (10 min at 37 °C). […] The baseline fluorescence was recorded for 5 s. Then, the cells were stimulated with KCl/CaCl2 solution (in HBSS, final concentration of KCl and CaCl2 was 90 and 5 mM, respectively) and the fluorescence was recorded for a further 30 s. Dimethyl sulfoxide 1% solution in HBSS was used as a vehicle control. Nimodipine (Cayman Chemical Company) was used as a reference inhibitor at 10 μM and compounds were assessed at the same final concentration in triplicate in three independent experiments. Fluorescent intensity values were normalized to the baseline.

SH-SY5Y cells [2] = experiment: Neuroprotection against oligomycin A/rotenone (O/R)-induced cell death in SH-SY5Y cells (MTS); type: cell-based; conditions: for O/R (%) neuroprotection: O at 10 µM/R at 30 µM
Description: (§2) The most balanced compounds were then submitted to evaluation of their neuroprotection activity. For this purpose, cytotoxicity was induced by H2O2, a well-known toxic responsible for the generation of ROS and by mitochondrial respiratory chain blockers oligomycin rotenone (O/R). Prior to the neuroprotective assay, the effect of the compounds on cell viability was evaluated at 1 and 10 µM, showing no cytotoxicity against SH-SY5Y cells.
(§3) SH-SY5Y cells were seeded in 96-well culture plates at a density of 12 × 10^4 cells per well in DMEM/F12 (1:1) medium supplemented with 10% fetal bovine serum, 1X non-essential amino acids, 100 units/mL penicillin and […] streptomycin (Dutscher, France). After 48 h of incubation, the cultures were treated with 100 µl of the test compounds or DMSO (0.1%) in the same medium. After 24 h, the cells were co-incubated with H2O2 (200 µM) or O/R (O at 10 µM/R at 30 µM) with or without the tested compounds at noncytotoxic concentrations for an additional period of 24 h. The percentage of cell viability was measured using CellTiter 96 AQueous Non-Radioactive Cell Proliferation (MTS) Assay (Promega, France).

SH-SY5Y cells [3] = experiment: Neuroprotection against H2O2-induced cell death in SH-SY5Y cells (MTS); type: cell-based; conditions: for H2O2 (%) neuroprotection: H2O2 200 µM
Description: as §2, §3

eqBuChE, sequence (P81908 whole entry): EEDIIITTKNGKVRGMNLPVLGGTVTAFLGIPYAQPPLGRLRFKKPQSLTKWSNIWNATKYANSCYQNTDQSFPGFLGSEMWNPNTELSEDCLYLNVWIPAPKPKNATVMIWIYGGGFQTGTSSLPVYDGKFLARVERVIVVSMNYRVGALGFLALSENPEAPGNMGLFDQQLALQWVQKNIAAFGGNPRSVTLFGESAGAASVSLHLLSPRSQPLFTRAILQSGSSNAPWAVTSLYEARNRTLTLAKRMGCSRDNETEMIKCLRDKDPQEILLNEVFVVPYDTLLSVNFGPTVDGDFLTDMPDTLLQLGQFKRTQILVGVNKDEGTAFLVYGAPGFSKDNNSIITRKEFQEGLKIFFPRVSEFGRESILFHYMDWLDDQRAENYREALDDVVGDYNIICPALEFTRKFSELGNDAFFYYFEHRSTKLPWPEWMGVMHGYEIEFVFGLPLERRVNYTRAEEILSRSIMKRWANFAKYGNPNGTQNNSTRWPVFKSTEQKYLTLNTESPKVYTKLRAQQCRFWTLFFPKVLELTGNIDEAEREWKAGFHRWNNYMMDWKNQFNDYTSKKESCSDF
EeAChE, sequence (O42275 24-633): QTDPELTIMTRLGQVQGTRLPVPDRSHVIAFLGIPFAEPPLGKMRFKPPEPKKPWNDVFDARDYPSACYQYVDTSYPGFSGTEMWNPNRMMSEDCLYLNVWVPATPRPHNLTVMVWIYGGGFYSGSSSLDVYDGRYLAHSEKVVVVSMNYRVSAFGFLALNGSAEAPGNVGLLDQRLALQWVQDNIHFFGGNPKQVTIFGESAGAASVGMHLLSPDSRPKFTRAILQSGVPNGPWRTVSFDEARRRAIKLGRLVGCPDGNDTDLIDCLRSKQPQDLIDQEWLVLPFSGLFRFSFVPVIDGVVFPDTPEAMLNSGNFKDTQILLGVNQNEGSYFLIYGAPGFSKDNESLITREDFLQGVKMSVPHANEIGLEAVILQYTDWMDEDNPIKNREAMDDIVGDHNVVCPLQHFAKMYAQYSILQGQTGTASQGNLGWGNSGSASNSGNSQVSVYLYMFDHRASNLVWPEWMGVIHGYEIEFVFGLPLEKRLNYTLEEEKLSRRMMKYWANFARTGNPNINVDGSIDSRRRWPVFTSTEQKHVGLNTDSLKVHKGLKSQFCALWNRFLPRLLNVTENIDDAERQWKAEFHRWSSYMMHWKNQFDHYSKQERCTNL

SMILES	inhibition at 10 µM (eqBuChE) [%]	inhibition at 10 µM (EeAChE; EeAChE) [%]	ORAC [1]	(%) Ca Flux Inhibition (Ca^+2 channel) [%]	also measured
CCOC(=O)C1=C(C)NC(C)=C(C(=O)OCC)C1c1ccc(OCCCCCCN2CCOCC2)cc1 [3i, 3,5-Ethyl-2,6-dimethyl-4-(4-{[6-(morpholin-4-yl)hexyl]oxy}phenyl)-1,4-dihydropyridine-3,5-dicarboxylate]	< 50	< 50	1.22 ± 0.02 TE	47.55	
CCOC(=O)C1=C(C)NC(C)=C(C(=O)OCC)C1c1ccc(OCCCCCCN(CC)CC)cc1 [3k, 3,5-Diethyl-4-(4-{[6-(diethylamino)hexyl]oxy}phenyl)–2,6–dimethyl-1,4–dihydropyridine-3,5-dicarboxylate]		< 50	1.21 ± 0.12 TE	31.66	IC50 (eqBuChE): 9.6 ± 0.3 µM
COC(=O)C1=C(C)NC(C)=C(C(=O)OC)C1c1ccc(OCCCCCCN2CCN(C)CC2)cc1 [3n, 3,5-Dimethyl-2,6-dimethyl-4-(4-{[6-(4-methylpiperazin-1-yl)hexyl]oxy}phenyl)-1,4-dihydro-pyridine-3,5-dicarboxylate]	< 50	< 50	1.39 ± 0.12 TE	28.9	
CCOC(=O)C1=C(C)NC(C)=C(C(=O)OCC)C1c1ccc(OCCCCCN(CC)CC)cc1 [3c, Diethyl-4-(4-((5-(diethylamino)pentyl)oxy)phenyl)-2,6-dimethyl-1,4-dihydropyridine-3,5-dicarboxylate]		< 50	2.64 TE and 2.64 ± 0.04 TE	58.21	neuroprotective effect against O/R (in words) (SH-SY5Y cells [2]): modest; O/R (%) neuroprotection (SH-SY5Y cells [2]; 0.3 µM): 22.27 ± 0.09%; O/R (%) neuroprotection (SH-SY5Y cells [2]; 1 µM): 25.87 ± 0.04%; IC50 (eqBuChE): 4.6 ± 0.1 µM; neuroprotective effect against H2O2 (in words) (SH-SY5Y cells [3]): modest; H2O2 (%) neuroprotection (SH-SY5Y cells [3]; 0.3 µM): 12.37 ± 0.08%; H2O2 (%) neuroprotection (SH-SY5Y cells [3]; 1 µM): 24.17 ± 0.12%
COC(=O)C1=C(C)NC(C)=C(C(=O)OC)C1c1ccc(OCCCCCN2CCC(Cc3ccccc3)CC2)cc1 [3h, Dimethyl-4-(4-((5-(4-benzylpiperidin-1-yl)pentyl)oxy)phenyl)-2,6-dimethyl-1,4-dihydropyridine-3,5-dicarboxylate]			2.54 TE and 2.54 ± 0.04 TE	47.72	O/R (%) neuroprotection (SH-SY5Y cells [2]; 0.3 µM): 38.29% and 38.29 ± 0.04 %; O/R (%) neuroprotection (SH-SY5Y cells [2]; 1 µM): 33.90% and 33.90 ± 0.05 %; IC50 (eqBuChE): 2 ± 0.1 µM; H2O2 (%) neuroprotection (SH-SY5Y cells [3]; 0.3 µM): 28% and 28.68% and 28.68 ± 0.02 %; H2O2 (%) neuroprotection (SH-SY5Y cells [3]; 1 µM): 23.32 ± 0.02 %; fold less active than tacrine (AChE IC50) (EeAChE; AChE IC50 vs tacrine): 60 fold; IC50 (EeAChE; EeAChE, mean ± SEM, read-out: AChE IC50): 1.8 ± 0.1 µM
CCOC(=O)C1=C(C)NC(C)=C(C(=O)OCC)C1c1ccc(OCCCCCN2CCOCC2)cc1 [3a, Diethyl-2,6-dimethyl-4-(4-((5-morpholinopentyl)oxy)phenyl)-1,4-dihydropyridine-3,5-dicarboxylate]	< 50	< 50	1.31 ± 0.01 TE	18.58	
CCN(CC)CCCCCOc1ccc(C2C(C(=O)OC)=C(C)NC(C)=C2C(=O)OC)cc1 [3d, Dimethyl-4-(4-((5-(diethylamino)pentyl)oxy)phenyl)-2,6-dimethyl-1,4-dihydropyridine-3,5-dicarboxylate]	< 50	< 50	1.93 ± 0.68 TE	39.55	
CCOC(=O)C1=C(C)NC(C)=C(C(=O)OCC)C1c1ccc(OCCCCCN2CCN(C)CC2)cc1 [3e, Diethyl-2,6-dimethyl-4-(4-((5-(4-methylpiperazin-1-yl)pentyl)oxy)phenyl)-1,4-dihydropyridine-3,5-dicarboxylate]	< 50	< 50	1.78 ± 0.00 TE	40.51	
CCN(CC)CCCCCCOc1ccc(C2C(C(=O)OC)=C(C)NC(C)=C2C(=O)OC)cc1 [3l, 3,5-Dimethyl-4-(4-{[6-(diethylamino)hexyl]oxy}phenyl)-2,6–dimethyl-1,4–dihydropyridine-3,5-dicarboxylate]		< 50	0.91 TE and 0.91 ± 0.01 TE	39.74	IC50 (eqBuChE): 8.7 ± 0.1 µM
COC(=O)C1=C(C)NC(C)=C(C(=O)OC)C1c1ccc(OCCCCCCN2CCOCC2)cc1 [3j, 3,5-Dimethyl-2,6-dimethyl-4-(4-{[6-(morpholin-4-yl)hexyl]oxy}phenyl)-1,4-dihydropyridine-3,5-dicarboxylate]	< 50	< 50	0.99 ± 0.09 TE	52.57	
CCOC(=O)C1=C(C)NC(C)=C(C(=O)OCC)C1c1ccc(OCCCCCCN2CCC(Cc3ccccc3)CC2)cc1 [3o]	< 50	< 50	1.36 ± 0.01 TE	80.19	
COC(=O)C1=C(C)NC(C)=C(C(=O)OC)C1c1ccc(OCCCCCCN2CCC(Cc3ccccc3)CC2)cc1 [3p, 3,5-Dimethyl-4-(4-{[6-(4-benzylpiperidin-1-yl)hexyl]oxy}phenyl)-2,6-dimethyl-1,4-dihydro-pyridine-3,5-dicarboxylate]	< 50	< 50	2.28 ± 0.01 TE	78.13	
COC(=O)C1=C(C)NC(C)=C(C(=O)OC)C1c1ccc(OCCCCCN2CCN(C)CC2)cc1 [3f, Dimethyl-2,6-dimethyl-4-(4-((5-(4-methylpiperazin-1-yl)pentyl)oxy)phenyl)-1,4-dihydropyridine-3,5-dicarboxylate]	< 50	< 50	1.38 ± 0.02 TE	38.4	
CCOC(=O)C1=C(C)NC(C)=C(C(=O)OCC)C1c1ccc(OCCCCCCN2CCN(C)CC2)cc1 [3m, 3,5-Diethyl-2,6-dimethyl-4-(4-{[6-(4-methylpiperazin-1-yl)hexyl]oxy}phenyl)-1,4-dihydro-pyridine-3,5-dicarboxylate]		< 50	1.10 ± 0.08 TE	50.6	neuroprotective effect against O/R (in words) (SH-SY5Y cells [2]): modest; O/R (%) neuroprotection (SH-SY5Y cells [2]; 0.3 µM): 8.95 ± 0.00%; O/R (%) neuroprotection (SH-SY5Y cells [2]; 1 µM): 16.65 ± 0.00%; IC50 (eqBuChE): 5.5 ± 0.1 µM; neuroprotective effect against H2O2 (in words) (SH-SY5Y cells [3]): modest; H2O2 (%) neuroprotection (SH-SY5Y cells [3]; 0.3 µM): 9.55 ± 0.00%; H2O2 (%) neuroprotection (SH-SY5Y cells [3]; 1 µM): 4.63 ± 0.02%; ORAC ([1]; listed as 2m): 1.10 TE
COCCOC(=O)C1=C(C)NC(C)=C(C(=O)OC(C)C)C1c1cccc([N+](=O)[O-])c1 (centres unmarked) [NIM, nimodipine, reference compound]				47.91	
CCOC(=O)C1=C(C)NC(C)=C(C(=O)OCC)C1c1ccc(OCCCCCN2CCC(Cc3ccccc3)CC2)cc1 [3g, Diethyl-4-(4-((5-(4-benzylpiperidin-1-yl)pentyl)oxy)phenyl)-2,6-dimethyl-1,4-dihydropyridine-3,5-dicarboxylate]	< 50	< 50	2.24 ± 0.04 TE	53.6	
COC(=O)C1=C(C)NC(C)=C(C(=O)OC)C1c1ccc(OCCCCCN2CCOCC2)cc1 [3b, Dimethyl-2,6-dimethyl-4-(4-((5-morpholinopentyl)oxy)phenyl)-1,4-dihydropyridine-3,5-dicarboxylate]	< 50	< 50	2.59 TE and 2.59 ± 0.04 TE	31.89	
